Earlier results, collected in patent US20060222695A1, “Deoxycholic acid liposome-based dermatological topical preparation” (priority 2005, published 2006).

Test system: cell cultures and tissue specimen
Conditions: similar to the effects of laboratory detergents

SMILES: C[C@H](CCC(=O)O)[C@H]1CC[C@H]2[C@@H]3CC[C@@H]4C[C@H](O)CC[C@]4(C)[C@H]3C[C@H](O)[C@]12C [Deoxycholic acid]
- effect on cells and fat tissue: loss of cell viability, cell membrane lysis and disruption of fat architecture
